The numbers were not newly measured in PMC8617627, “Novel DYRK1A Inhibitor Rescues Learning and Memory Deficits in a Mouse Model of Down Syndrome” (Pharmaceuticals, 2021), which cites them from elsewhere.

The test system of the data set is 139-protein kinase panel. To be noted: no reference given, cited from earlier work.

Structures are written as SMILES. Like-named read-outs stand apart in the source and are kept apart here.

Take `CN[C@@H]1C[C@H]2O[C@@](C)([C@@H]1OC)n1c3ccccc3c3c4c(c5c6ccccc6n2c5c31)C(=O)NC4` [staurosporine]: the GINI-index (comparison value for staurosporine, with 10 uM ATP) is 0.093.
As for `COc1ccc2c(c1)[nH]c1c(C)nccc12` [harmine], the GINI-index (comparison value for harmine) was 0.506.
